Laboratory results published in patent US20220175768A1, “FGFR TYROSINE KINASE INHIBITORS FOR THE TREATMENT OF UROTHELIAL CARCINOMA” (Janssen Pharmaceutica NV, priority 2019, published 2022).
Where two headings read alike, the source gives them in different places.

How the values were obtained:
[1] = tested on: metastatic or surgically unresectable urothelial cancer harboring select FGFR genetic alterations; details: for ORR, BIRC assessment / ORR, investigator assessment: chemotherapy-refractory patients in Regimen 3
Text: The study comprises a Screening Phase (molecular screening at any time prior to first dose and study screening within 30 days of first dose), a treatment phase, and a post-treatment follow-up phase. The treatment phase comprises the period from first dose until the end-of-treatment visit. The follow-up phase extends until the subject has died, withdraws consent, is lost to follow-up, or the end of study, whichever comes first.
Included patients were adults with measurable urothelial cancer per Response Evaluation Criteria in Solid Tumors version 1.1.
Patients were required to have at least 1 FGFR2/FGFR3 mutation or fusion per central lab testing of RNA from formalin-fixed, paraffin-embedded tumor samples, using a custom reverse transcriptase polymerase chain reaction assay.
The primary end point of this study is Objective Response Rate to the selected regimen (Regimen 3).
Secondary end points include progression-free survival (PFS), response duration, Overall Survival, safety, response rate in biomarker-specific subgroups, and pharmacokinetics.
The study was designed to enroll 180 patients with specified FGFR alterations. Of these, ≥88 were required in the selected regimen. […] Responses were assessed by investigators and an independent radiological review committee. Progression-free survival and overall survival were estimated using Kaplan-Meier product limit method. Data from patients who were progression free and alive or with unknown status were censored at last tumor assessment. Efficacy end points were analysed at primary analysis cut-off.

[2] = Effect of food (high-fat and high-calorie meal) on pharmacokinetics in healthy subjects; format: in vivo, human
in vitro = in vitro ADME; details: human
[3] = Excretion following a single oral dose of radiolabeled erdafitinib; format: in vivo, human
[4] = human, in vivo
clinical = details: human, in vivo
[5] = Chemotherapy-refractory patients in Regimen 3 (N = 87)
[6] = Regimen 1, 10 mg intermittent (n = 33)
[7] = Regimen 2, 6 mg continuous (n = 78)
[8] = Regimen 3, of 97 patients with ≥1 postbaseline disease evaluation

For `COc1cc(OC)cc(N(CCNC(C)C)c2ccc3ncc(-c4cnn(C)c4)nc3c2)c1` [erdafitinib, N-(3,5-dimethoxy-phenyl)-N′-(1-methylethyl)-N-[3-(1-methyl-1H-pyrazol-4-yl)quinoxalin-6-yl]ethane-1,2-diamine], the “Objective response rate per investigator assessment” value ([1]; 8 mg non-uptitrated continuous dose regimen, Regimen 3) was “(34.5) %”, the “Objective response rate per investigator assessment” value ([1]; 8 mg uptitrated to 9 mg continuous dose regimen, Regimen 3) was “(48.8) %” and the “Objective response rate per investigator assessment” value ([1]; Bone metastases, Regimen 1, 10 mg intermittent) was “(17) %”. The “Objective response rate per investigator assessment” value ([1]; Bone metastases, Regimen 2, 6 mg continuous) was “(40) %”, the “Objective response rate per investigator assessment” value ([1]; Bone metastases, Regimen 3, 8 mg continuous) was “(31.8) %” and the “Objective response rate per investigator assessment” value ([1]; Chemotherapy-naïve, Regimen 1, 10 mg intermittent) was “(25) %”. The “Objective response rate per investigator assessment” value ([1]; Chemotherapy-naïve, Regimen 2, 6 mg continuous) was “(0) %”, the “Objective response rate per investigator assessment” value ([1]; Chemotherapy-naïve, Regimen 3, 8 mg continuous) was “(41.7) %” and the “Complete response (CR), investigator assessment” value [1, 5] was 3.4%. The “Partial response (PR), investigator assessment” value [1, 5] was 36.8%, the “ORR, BIRC assessment” value ([1]; FGFR2 Fusion (N = 6)) was 0% and the “ORR, BIRC assessment” value ([1]; FGFR3 Fusion (N = 18)) was 11.1%. The “ORR, BIRC assessment” value ([1]; FGFR3 Point Mutation (N = 64)) was 40.6%, the “ORR, investigator assessment” value ([1]; FGFR3 Point Mutation (N = 64)) was 48.4% and the “ORR, investigator assessment” value ([1]; FGFR Fusion (N = 23)) was 17.4%. The “Objective response rate per investigator assessment” value ([1]; Liver metastases, Regimen 1, 10 mg intermittent) was “(27) %”, the “Objective response rate per investigator assessment” value ([1]; Liver metastases, Regimen 2, 6 mg continuous) was “(24) %” and the “Objective response rate per investigator assessment” value ([1]; Liver metastases, Regimen 3, 8 mg continuous) was “(35.0) %”. For the same molecule, the “Objective response rate per investigator assessment” value ([1]; Lower tract disease, Regimen 1, 10 mg intermittent) was “(9) %”, the “Objective response rate per investigator assessment” value ([1]; Lower tract disease, Regimen 2, 6 mg continuous) was “(39) %” and the “Objective response rate per investigator assessment” value ([1]; Lower tract disease, Regimen 3, 8 mg continuous) was “(39.5) %”. For the same molecule, the “Objective response rate per investigator assessment” value ([1]; Lung metastases, Regimen 1, 10 mg intermittent) was “(27) %”, the “Objective response rate per investigator assessment” value ([1]; Lung metastases, Regimen 2, 6 mg continuous) was “(41) %” and the “Objective response rate per investigator assessment” value ([1]; Lung metastases, Regimen 3, 8 mg continuous) was “(40.4) %”. For the same molecule, the “Objective response rate per investigator assessment” value ([1]; Lymph node metastases only, Regimen 1, 10 mg intermittent) was “(0) %”, the “Objective response rate per investigator assessment” value ([1]; Lymph node metastases only, Regimen 2, 6 mg continuous) was “(67) %” and the “Objective response rate per investigator assessment” value ([1]; Lymph node metastases only, Regimen 3, 8 mg continuous) was “(33.3) %”. For the same molecule, the “Objective response rate per investigator assessment” value ([1]; No. of lines of prior systemic therapy 0, Regimen 3, 8 mg continuous) was “(36.4) %”, the “Objective response rate per investigator assessment” value ([1]; No. of lines of prior systemic therapy 1, Regimen 3, 8 mg continuous) was “(37.8) %” and the “Objective response rate per investigator assessment” value ([1]; No. of lines of prior systemic therapy 2, Regimen 3, 8 mg continuous) was “(37.9) %”. For the same molecule, the “Objective response rate per investigator assessment” value ([1]; No. of lines of prior systemic therapy 3, Regimen 3, 8 mg continuous) was “(60.0) %”, the “Objective response rate per investigator assessment” value ([1]; No. of lines of prior systemic therapy ≥4, Regimen 3, 8 mg continuous) was “(50.0) %” and the “Objective response rate per investigator assessment” value ([1]; Progressed or relapsed after chemotherapy, Regimen 1, 10 mg intermittent) was “(21) %”. For the same molecule, the “Objective response rate per investigator assessment” value ([1]; Progressed or relapsed after chemotherapy, Regimen 2, 6 mg continuous) was “(37) %”, the “Objective response rate per investigator assessment” value ([1]; Progressed or relapsed after chemotherapy, Regimen 3, 8 mg continuous) was “(40.2) %” and the “Median progression-free survival per investigator assessment” value ([1]; Regimen 1) was 4.8 months. The “Overall survival rate at 12 months” value ([1]; Regimen 1) was 31%, the “Progression-free survival rate at 12 months” value (from here on “Progression-free survival rate”) ([1]; Regimen 1) was 18% and the “Complete response per investigator assessment” value [1, 6] was 1 no. For the same molecule, the “Median time to response” value [1, 6] was 1.4 mo, the Median overall survival ([1]; Regimen 1, median follow-up 22.9 months) was 7.5 months and the “Median progression-free survival per investigator assessment” value ([1]; Regimen 2) was 5.3 months. For the same molecule, the “Overall survival rate at 12 months” value ([1]; Regimen 2) was 33%, the “Progression-free survival rate” value ([1]; Regimen 2) was 11% and the “Complete response per investigator assessment” value [1, 7] was 3 no. For the same molecule, the “Median time to response” value [1, 7] was 1.4 mo, the Median overall survival ([1]; Regimen 2, median follow-up 18.5 months) was 8.6 months and the “Responses maintained for >12 months” value ([1]; Regimen 3) was “roughly 30%”. The “Survival rate at 12 months” value ([1]; Regimen 3) was 55%, the “Median time to response” value ([1]; Regimen 3, 8 mg continuous (n = 99)) was 1.4 mo and the Median progression-free survival ([1]; Regimen 3, 8 mg per day continuous (FIG. 5A)) was 5.5 months. For the same molecule, the Median overall survival ([1]; Regimen 3, 8 mg per day continuous (FIG. 5B)) was 13.8 months, the Patients who responded ([1]; Regimen 3, FGFR3-TACC3 V1 fusion (n=11)) was 36.4% and the “Disease stabilization lasting >6 months” value ([1]; Regimen 3, among 39 patients with stable disease) was 33%. The “Additional patients with stable disease” value ([1]; Regimen 3, patients with FGFR mutations (n=74)) was 26 patients, the “Progression-free survival rate” value ([1]; Regimen 3, per investigator assessment) was 19% and the “Patients with maximum tumor reduction between 30% and 100%” value [1, 8] was 49%. The “Patients with reduction in sum of target lesion diameters” value [1, 8] was 77%, the “Objective response rate per investigator assessment” value ([1]; Upper tract disease, Regimen 1, 10 mg intermittent) was “(46) %” and the “Objective response rate per investigator assessment” value ([1]; Upper tract disease, Regimen 2, 6 mg continuous) was “(23) %”. For the same molecule, the “Objective response rate per investigator assessment” value ([1]; Upper tract disease, Regimen 3, 8 mg continuous) was “(43.5) %”, the “Objective response rate per investigator assessment” value ([1]; With FGFR2/3 fusions, Regimen 1, 10 mg intermittent) was “(0) %” and the “Objective response rate per investigator assessment” value ([1]; With FGFR2/3 fusions, Regimen 2, 6 mg continuous) was “(17) %”. For the same molecule, the “Objective response rate per investigator assessment” value ([1]; With FGFR3 mutations, Regimen 1, 10 mg intermittent) was “(22) %”, the “Objective response rate per investigator assessment” value ([1]; With FGFR3 mutations, Regimen 2, 6 mg continuous) was “(36) %” and the “Objective response rate per investigator assessment” value ([1]; With visceral metastases, Regimen 1, 10 mg intermittent) was “(29) %”. For the same molecule, the “Objective response rate per investigator assessment” value ([1]; With visceral metastases, Regimen 2, 6 mg continuous) was “(32) %”, the “Objective response rate per investigator assessment” value ([1]; With visceral metastases, Regimen 3, 8 mg continuous) was “(38.5) %” and the “Objective response rate per investigator assessment” value ([1]; Without visceral metastases, Regimen 1, 10 mg intermittent) was “(0) %”. For the same molecule, the “Objective response rate per investigator assessment” value ([1]; Without visceral metastases, Regimen 2, 6 mg continuous) was “(42) %”, the “Objective response rate per investigator assessment” value ([1]; Without visceral metastases, Regimen 3, 8 mg continuous) was “(47.6) %” and the “Effect of food on erdafitinib pharmacokinetics” value [2] was “No clinically meaningful differences”. The fraction unbound (in vitro) was 0.002, the “Dose recovered in feces” value [3] was “approximately 69%” and the “Dose recovered in feces as unchanged” value [3] was 19%. For the same molecule, the “Dose recovered in urine” value [3] was 19%, the “Dose recovered in urine as unchanged” value [3] was 13% and the “Circulating metabolites in plasma” value [4] was “no circulating metabolites”. The “Exposure (Cmax and AUC) versus dose” value [4] was “increased proportionally”, the “Mean total apparent clearance (CL/F)” value [4] was 0.362 L/h and the “Time to steady state” value [4] was 2 weeks. It also gave a Vd (clinical) of 29 L and a half-life (clinical) of 59 h.
